Values joined by “and” are separate entries in the source; they are usually repeats but may differ in a detail not shown here. Equal values may be shown once. Read-outs that look alike come from different tables or passages of the source. Positions of bridges follow the written chain, without caps; N, C: chain ends. Non-standard residues stand in square brackets, D forms with d. Residues, ends and D or L forms follow the SMILES beside them. *: point of attachment. X1 = N=C(N)NCCC[C@H]1C(=O)N[C@H](C(N)=O)CN1*; dNle = CCCC[C@@H](N)C(=O)O; Heptanoyl = CCCCCCC(=O)*
Columns and labels:
[1] = cited from earlier work
[2] = test system: mean arterial blood pressure and heart rate; assay: Cardiovascular parameters in anaesthetized guinea pigs; conditions: i.t.; PL-3994 1–1000 µg/kg, salbutamol 1000 µg/kg; n = 6
[3] = test system: bronchoconstrictor response to aerosolized methacholine; assay: Methacholine-induced bronchoconstriction in anaesthetized guinea pigs; type: in vivo, guinea pig; conditions: for Maximum inhibition of methacholine bronchoconstrictor response: 1000 µg/kg i.t., 15-min pretreatment, n = 6, mean ± SEM; for Inhibition of methacholine bronchoconstriction at 60 min: i.t., 60-min pretreatment, all doses
[4] = test system: 75 diverse molecular targets; assay: CEREP standard profiling screen; type: binding; conditions: 1 µM
[5] = target: T1, human NPR-B (Homo sapiens, UniProt P20594); assay: cGMP generation in HEK293 cells expressing receptor; type: cell-based; conditions: for Effect on cGMP generation in hNPR-B functional assay: concentrations up to 10 µM; for Emax, cGMP generation, hNPR-B: mean ± SEM
T1 sequence (P20594 23-1047): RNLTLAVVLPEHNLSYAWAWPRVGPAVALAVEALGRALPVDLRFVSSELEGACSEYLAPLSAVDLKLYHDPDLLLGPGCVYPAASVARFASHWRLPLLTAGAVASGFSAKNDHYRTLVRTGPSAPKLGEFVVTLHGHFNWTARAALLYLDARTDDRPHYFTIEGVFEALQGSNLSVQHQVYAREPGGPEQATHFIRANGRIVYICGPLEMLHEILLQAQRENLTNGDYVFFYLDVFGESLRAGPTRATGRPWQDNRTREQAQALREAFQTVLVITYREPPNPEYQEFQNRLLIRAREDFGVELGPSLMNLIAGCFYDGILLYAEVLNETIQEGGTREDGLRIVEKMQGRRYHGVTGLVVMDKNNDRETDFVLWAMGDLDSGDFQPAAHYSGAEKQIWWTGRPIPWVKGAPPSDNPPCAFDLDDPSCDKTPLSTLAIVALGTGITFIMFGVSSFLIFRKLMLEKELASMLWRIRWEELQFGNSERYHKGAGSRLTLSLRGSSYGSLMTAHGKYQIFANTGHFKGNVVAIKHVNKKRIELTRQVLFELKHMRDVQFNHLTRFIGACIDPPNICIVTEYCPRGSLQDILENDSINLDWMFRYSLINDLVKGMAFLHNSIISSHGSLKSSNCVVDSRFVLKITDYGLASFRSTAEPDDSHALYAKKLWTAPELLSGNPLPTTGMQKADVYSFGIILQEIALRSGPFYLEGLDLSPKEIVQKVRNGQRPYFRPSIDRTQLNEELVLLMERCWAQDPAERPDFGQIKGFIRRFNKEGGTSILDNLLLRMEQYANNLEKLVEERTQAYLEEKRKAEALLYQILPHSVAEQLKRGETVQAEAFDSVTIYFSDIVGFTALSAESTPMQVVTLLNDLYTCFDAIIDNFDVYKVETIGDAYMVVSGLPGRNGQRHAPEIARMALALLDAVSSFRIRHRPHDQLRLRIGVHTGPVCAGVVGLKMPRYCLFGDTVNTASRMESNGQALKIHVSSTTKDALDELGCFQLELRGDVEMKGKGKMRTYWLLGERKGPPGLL

[6] = target: non-selective somatostatin receptor (sst); assay: CEREP profiling screen and follow-up Ki; type: binding; conditions: read-out: Ki, sst; follow-up study
[7] = target: kappa opioid receptor; assay: CEREP profiling screen and follow-up Ki; type: binding; conditions: read-out: Ki, kappa; follow-up study
[8] = test system: rat trachea; assay: Relaxation of carbachol-precontracted rat trachea; conditions: 100 µM; carbachol 1 µM; n = 6; mean ± SEM

| Compound | Effect on heart rate compared to baseline [2] | Effect on mean arterial blood pressure compared to baseline [2] | Maximum inhibition of methacholine bronchoconstrictor response [3] | Inhibition of methacholine bronchoconstriction at 60 min [3] | Effect on cGMP generation in hNPR-B functional assay [5] | Emax, cGMP generation, hNPR-B [5] [% hCNP] | further results |
| --- | --- | --- | --- | --- | --- | --- | --- |
| CC[C@H](C)[C@@H]1NC(=O)[C@H](CCCNC(=N)N)NC(=O)[C@H](CC(=O)O)NC(=O)[C@H](CC(C)C)NC(=O)[C@H](CCCCN)NC(=O)[C@H](CC(C)C)NC(=O)CNC(=O)[C@H](Cc2ccccc2)NC(=O)[C@@H](NC(=O)CNC(=O)[C@H](CCCCN)NC(=O)[C@H](CO)NC(=O)[C@H](CC(C)C)NC(=O)CN)CSSC[C@@H](C(=O)O)NC(=O)CNC(=O)[C@H](CC(C)C)NC(=O)CNC(=O)[C@H](CO)NC(=O)[C@H](CCSC)NC(=O)[C@H](CO)NC(=O)CNC1=O [CNP, C-type natriuretic peptide] | – | – | – | – | – | – | Human plasma half-life ([1]; ref [10]): about 2 min |
| CCCCCCC(=O)N[C@H]1CSSC[C@@H](C(=O)N[C@@H](Cc2ccc(O)cc2)C(=O)N2C[C@@H](C(N)=O)NC(=O)[C@@H]2CCCNC(=N)N)NC(=O)[C@H](CO)NC(=O)[C@H]([C@@H](C)CC)NC(=O)[C@H](CCCNC(=N)N)NC(=O)[C@H](CC(=O)O)NC(=O)[C@@H](CCCC)NC(=O)[C@H](CCCNC(=N)N)NC(=O)CNC(=O)[C@@H](C)NC(=O)[C@H](Cc2ccccc2)NC(=O)[C@H](Cc2c[nH]cn2)NC1=O [PL-3994, Hept-cyclo(Cys-His-Phe-D-Ala-Gly-Arg-D-Nle-Asp-Arg-Ile-Ser-Cys)-Tyr-[Arg-mimetic]-NH2] (Heptanoyl-CHF[dA]GR[dNle]DRISCY-X1; disulfide 1-12) | no significant effect | no significant effect | 70% | maintained | without effect | – | Inhibition of methacholine bronchoconstriction at 120 min ([3]; 10 µg/kg and 100 µg/kg i.t.): extended to 120 min post-administration, although it was reduced; Inhibition of methacholine bronchoconstriction at 240 min ([3]; 10 µg/kg and 100 µg/kg i.t., 240-min pretreatment): absent; Effect against 75 diverse molecular targets [4]: without significant effect; EC50, cGMP generation, hNPR-B ([5]; HEK293 cells, 0.5 mM IBMX, 15 min, cGMP HTRF): Not calculable; Ki [6]: 4200 nM; Ki [7]: 880 nM |
| CC[C@H](C)[C@@H]1NC(=O)[C@H](CCCNC(=N)N)NC(=O)[C@H](CC(=O)O)NC(=O)[C@H](CCSC)NC(=O)[C@H](CCCCN)NC(=O)[C@H](CCCNC(=N)N)NC(=O)CNC(=O)[C@H](Cc2ccccc2)NC(=O)[C@@H](NC(=O)CNC(=O)[C@H](CO)NC(=O)CNC(=O)[C@H](CCC(N)=O)NC(=O)[C@@H](NC(=O)[C@H](CCSC)NC(=O)[C@H](CCCCN)NC(=O)[C@@H]2CCCN2C(=O)[C@@H](N)CO)C(C)C)CSSC[C@@H](C(=O)N[C@@H](CCCCN)C(=O)N[C@H](C(=O)N[C@@H](CC(C)C)C(=O)N[C@@H](CCCNC(=N)N)C(=O)N[C@@H](CCCNC(=N)N)C(=O)N[C@@H](Cc2c[nH]cn2)C(=O)O)C(C)C)NC(=O)CNC(=O)[C@H](CC(C)C)NC(=O)CNC(=O)[C@H](CO)NC(=O)[C@H](CO)NC(=O)[C@H](CO)NC(=O)[C@H](CO)NC1=O [hBNP, brain natriuretic peptide] | – | – | – | – | no functional activity | 9 ± 1 | – |
| CC[C@H](C)[C@@H]1NC(=O)[C@H](CCCNC(=N)N)NC(=O)[C@H](CC(=O)O)NC(=O)[C@H](CCSC)NC(=O)[C@H](CCCNC(=N)N)NC(=O)CNC(=O)CNC(=O)[C@H](Cc2ccccc2)NC(=O)[C@@H](NC(=O)[C@H](CO)NC(=O)[C@H](CO)NC(=O)[C@H](CCCNC(=N)N)NC(=O)[C@H](CCCNC(=N)N)NC(=O)[C@H](CC(C)C)NC(=O)[C@@H](N)CO)CSSC[C@@H](C(=O)N[C@@H](CC(N)=O)C(=O)N[C@@H](CO)C(=O)N[C@@H](Cc2ccccc2)C(=O)N[C@@H](CCCNC(=N)N)C(=O)N[C@@H](Cc2ccc(O)cc2)C(=O)O)NC(=O)CNC(=O)[C@H](CC(C)C)NC(=O)CNC(=O)[C@H](CO)NC(=O)[C@H](CCC(N)=O)NC(=O)[C@H](C)NC(=O)CNC1=O [hANP, atrial natriuretic peptide] | – | – | – | – | – | 6 ± 0.8 | Human plasma half-life ([1]; human, in vivo): about 2 min |
| CC(C)(C)NCC(O)c1ccc(O)c(CO)c1 (stereo not drawn) [salbutamol] | no significant effect | no significant effect | 87 ± 2% and 87% | maintained | – | – | Relaxation of carbachol-precontracted rat trachea [8]: 70.0 ± 10.4 % relaxation |

From article PMC4070431 (Pulmonary pharmacology & therapeutics, 2012)
